The test system of test [1] is SF-295. Briefly: Cytotoxicity against human SF295 cells assessed as reduction in cell viability after 48 hrs. The settings on record: SF-295, 48 h. It counts as functional, cell-based.
Test [2] concerns HCT-116. Kind of test: Cytotoxicity against human HCT116 cells assessed as reduction in cell viability after 48 hrs. The note with it: HCT-116, 48 h. It counts as functional, cell-based.
Test [3] relates to HL-60. Briefly: Cytotoxicity against human HL60 cells assessed as reduction in cell viability after 48 hrs. In kind it is functional, cell-based. The settings on record: HL-60, 48 h.
The subject of a further test is OVCAR-8. Kind of test: Cytotoxicity against human OVCAR8 cells assessed as reduction in cell viability after 48 hrs. In kind it is functional, cell-based. The settings on record: OVCAR-8, 48 h.
In test [4] the test system is MDA-MB-435. Briefly: Cytotoxicity against human MDA-MB-435 cells assessed as reduction in cell viability after 48 hrs. The note with it: MDA-MB-435, 48 h. It counts as functional, cell-based.
Test [5] deals with PC-3. Kind of test: Cytotoxicity against human PC3 cells assessed as reduction in cell viability after 48 hrs. It counts as functional, cell-based. The settings on record: PC-3, 48 h.
A further test has as its system SF-268. Briefly: Anticancer activity against human SF268 cells. It counts as functional, cell-based.
A further test has as its system HCT-8. Briefly: Anticancer activity against human HCT8 cells. It counts as functional, cell-based.
The next test deals with Hs-578T. Kind of test: Anticancer activity against human Hs578T cells. It counts as functional, cell-based.
The subject of test [6] is HCT-116. Kind of test: Anticancer activity against human HCT116 cells. It counts as functional, cell-based.
For another test, the system named is MX1. Briefly: Anticancer activity against human MX1 cells. It counts as functional, cell-based.
For another test, the system named is SW-620. Briefly: Anticancer activity against human SW620 cells. In kind it is functional, cell-based.
The test system of test [7] is MDA-MB-435. Briefly: Anticancer activity against human MDA-MB-435 cells. It counts as functional, cell-based.
Test [8] deals with HL-60. Briefly: Anticancer activity against human HL60 cells. In kind it is functional, cell-based.
For another test, the system named is MOLT-4. Briefly: Anticancer activity against human MOLT4 cells. It counts as functional, cell-based.
Another test relates to Jurkat. Kind of test: Anticancer activity against human Jurkat cells. It counts as functional, cell-based.
The subject of the next test is MDA-MB-231. Kind of test: Anticancer activity against human MDA-MB-231 cells. In kind it is functional, cell-based.
Another test has as its system DU-145. Briefly: Anticancer activity against human DU145 cells. It counts as functional, cell-based.
For the next test, the system named is UACC-62. Kind of test: Anticancer activity against human UACC62 cells. In kind it is functional, cell-based.
Test [9] relates to PC-3. Briefly: Anticancer activity against human PC3 cells. In kind it is functional, cell-based.
Test [10] concerns SF-295. Kind of test: Anticancer activity against human SF295 cells. It counts as functional, cell-based.
Another test deals with NCI-H460. Kind of test: Anticancer activity against human NCI-H460 cells. In kind it is functional, cell-based.
Another test deals with K562. Kind of test: Anticancer activity against human K562 cells. It counts as functional, cell-based.
For a further test, the system named is PBMC. Briefly: Cytotoxicity against human PBMC. In kind it is cell-based.

A word on the IC50: it is the concentration needed to halve the response being measured.

As for `CC1(C)OC2=C(C(=O)C(=O)c3ccccc32)C1Nc1cccc(-c2cn(C[Se]c3ccccc3)nn2)c1` (centres undefined), the IC50 in the test on SF-295 [1], in the test with HCT-116 [2], in the test with HL-60 [3], in the test on OVCAR-8, with MDA-MB-435 [4] and in the test on PC-3 [5] was less than 100 nM throughout.

With `Cc1cc(C)n2c1C(c1ccc(OCc3cn(C4C5=C(OC4(C)C)c4ccccc4C(=O)C5=O)nn3)cc1)=C1C=CC=[N+]1[B-]2(F)F` (centres undefined), the IC50 with SF-268, in the test with HCT-8, in the test on Hs-578T, with HCT-116 [6], in the test with MX1 and in the test with SW-620 was 340 to 2170 nM throughout. In addition, the IC50 with MDA-MB-435 [7], with HL-60 [8], in the test on MOLT-4, in the test on Jurkat, with MDA-MB-231 and in the test on DU-145 was 340 to 2170 nM throughout. The IC50 in the test on UACC-62 is 340 to 2170 nM; in the test on PC-3 [9], 340 to 2170 nM; in the test with SF-295 [10], 340 to 2170 nM; in the test on NCI-H460, 340 to 2170 nM; in the test on K562, 340 to 2170 nM; with PBMC it was 3260 nM.

These data come from ChEMBL document CHEMBL4406812, “Synthesis of quinones with highlighted biological applications: A critical update on the strategies towards bioactive compounds with emphasis on lapachones” (Eur J Med Chem, 2019).
